In PubChem BioAssay AID1645862 (Buhrlage Lab, Dana-Farber Cancer Institute and Novartis …, 2021):
Calls of active or inactive are those of the source. The rule behind the calls is not given here.

Target: Ubiquitin carboxyl-terminal hydrolase 8 (Homo sapiens) (UniProt P40818)
Experiment: Ubiquitin-specific protease 8 inhibitors, concentration-effect, biochemical, validation of initial actives (AID 1645862);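 note: potency reflects inhibition of USP8 cleavage of a ubiquitin rhodamine substrate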
Conditions: recombinant USP8 deubiquitinase activity assay

Ubiquitin carboxyl-terminal hydrolase 8 (Homo sapiens), sequence (P40818 whole entry, looked up): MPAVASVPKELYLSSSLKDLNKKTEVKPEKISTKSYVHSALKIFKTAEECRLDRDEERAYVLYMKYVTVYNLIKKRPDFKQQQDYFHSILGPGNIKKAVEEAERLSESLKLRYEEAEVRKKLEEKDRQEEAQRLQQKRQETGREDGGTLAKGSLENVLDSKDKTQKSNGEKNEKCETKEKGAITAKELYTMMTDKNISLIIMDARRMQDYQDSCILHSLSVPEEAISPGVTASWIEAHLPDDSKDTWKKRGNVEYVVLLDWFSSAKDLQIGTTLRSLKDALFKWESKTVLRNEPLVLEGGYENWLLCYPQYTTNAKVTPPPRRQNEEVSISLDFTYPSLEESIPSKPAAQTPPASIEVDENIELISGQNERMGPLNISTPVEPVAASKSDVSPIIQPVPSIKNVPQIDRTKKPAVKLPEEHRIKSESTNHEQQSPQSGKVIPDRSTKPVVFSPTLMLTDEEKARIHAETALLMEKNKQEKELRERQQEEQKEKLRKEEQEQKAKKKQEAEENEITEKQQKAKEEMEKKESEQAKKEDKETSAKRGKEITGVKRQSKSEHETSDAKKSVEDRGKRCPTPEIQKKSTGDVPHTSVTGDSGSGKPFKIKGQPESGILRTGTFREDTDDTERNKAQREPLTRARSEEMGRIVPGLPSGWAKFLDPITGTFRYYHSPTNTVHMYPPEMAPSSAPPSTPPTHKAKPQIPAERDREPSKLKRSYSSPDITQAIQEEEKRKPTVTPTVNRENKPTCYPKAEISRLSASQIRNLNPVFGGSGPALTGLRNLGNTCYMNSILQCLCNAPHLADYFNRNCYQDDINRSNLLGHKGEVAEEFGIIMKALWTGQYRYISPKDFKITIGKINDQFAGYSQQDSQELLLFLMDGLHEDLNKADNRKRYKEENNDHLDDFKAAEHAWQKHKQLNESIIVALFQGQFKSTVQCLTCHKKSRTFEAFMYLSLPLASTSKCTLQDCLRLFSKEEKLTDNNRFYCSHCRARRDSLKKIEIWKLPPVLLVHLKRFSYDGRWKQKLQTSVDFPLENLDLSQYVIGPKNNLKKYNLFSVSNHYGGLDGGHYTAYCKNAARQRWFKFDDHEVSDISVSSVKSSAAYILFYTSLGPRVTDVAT

SMILES	IC50
COc1ccc(C(=O)C(C)OC(=O)c2cccc(S(=O)(=O)Nc3cc([N+](=O)[O-])ccc3OC)c2)c(OC)c1 (centres undefined)	> 40 µM (inactive)
Cc1cc(C)c(O)c(-c2cc(C(=O)Nc3ccccc3Cl)[nH]n2)c1	> 40 µM (inactive)
CN(C)c1cccc(-c2nnc(SCC(=O)Nc3ccc(F)cc3)n2-c2ccccc2)c1	> 40 µM (inactive)
COc1ccc(-c2onc(C)c2C)cc1S(=O)(=O)NCc1ccc(F)cc1	> 40 µM (inactive)
O=C(c1cc(Cl)c(Cl)[nH]1)c1cc(Cl)cc(Cl)c1O	> 40 µM (inactive)
CCOc1ccc(NC(=O)Cn2c(=O)n(CCC(=O)NCc3ccccc3OC)c(=O)c3ccccc32)cc1	> 40 µM (inactive)
NS(=O)(=O)c1cccc(NC(=O)/C=C/c2cn(-c3ccccc3)nc2-c2cccc([N+](=O)[O-])c2)c1	> 40 µM (inactive)
Cc1c(C#N)c2ccccc2n1CC(=O)NCc1ccc2c(c1)OCO2	> 40 µM (inactive)
CN(C)c1ccc(S(=O)(=O)N2CCCCC2)cc1NC(=O)COc1ccccc1	> 40 µM (inactive)
COc1ccc(NC(=O)Nc2ccc(F)c(-c3nnc(-c4ccccc4)o3)c2)c(OC)c1	> 40 µM (inactive)
CC(C)=CCc1c(O)cc2c(c1C)OC(=O)c1c(C)c(Cl)c(O)c(CO)c1O2	> 40 µM (inactive)
COc1ccc(-c2cc3nc([C@H](C)NC(=O)Cc4cc(F)ccc4F)nn3cn2)cc1	> 40 µM (inactive)
COc1ccc(N/C=C/c2onc(C)c2[N+](=O)[O-])c(OC)c1	> 40 µM (inactive)
O=C(c1ccc2cc[nH]c2c1)N1CCC(Nc2cccnc2)C1 (centres undefined)	> 40 µM (inactive)
Cc1ccc(Cn2nnc3c(=O)[nH]c(C4CCN(S(=O)(=O)c5ccc(S(=O)(=O)NC6CCCC6)cc5)CC4)nc32)cc1	> 40 µM (inactive)
O=C(COC(=O)c1cccc([N+](=O)[O-])c1)Nc1cccc(Oc2ccccc2)c1	> 40 µM (inactive)
N#Cc1cccc(NC(=O)Nc2cccn(Cc3ccc(F)cc3)c2=O)c1	> 40 µM (inactive)
Cc1cccc(C(=O)OCC(=O)Nc2ccc3[nH]c(=O)[nH]c3c2)c1	> 40 µM (inactive)
Cc1ccc2c(c1)c(=O)c(C(=O)c1ccccc1)cn2CC(=O)Nc1ccccc1	27.5 µM
Cc1ccc(CNC(=O)CCCn2c(=O)c3sccc3n(CC(=O)OCc3ccccc3)c2=O)cc1	> 40 µM (inactive)
O=c1oc2c3c(c(Cl)cc2c2c1CCCC2)OCN(Cc1ccccc1)C3	> 40 µM (inactive)
O=C(Nc1cccc(Cl)c1)c1cc(-c2cccnc2)n[nH]1	> 40 µM (inactive)

SMILES	IC50
Cc1ccc2c(CNCCC3=CCCCC3)c(C(=O)O)n(C)c2c1	> 40 µM (inactive)
COc1ccc(CCNC(=O)CSc2cn(CCNC(=O)c3ccccc3C)c3ccccc23)cc1OC	> 40 µM (inactive)
CCOc1ccc2[nH]c(=O)c(-c3nc4ccc(C)cn4c3NCc3ccccc3)cc2c1	> 40 µM (inactive)
COc1ccc(C)cc1NC(=O)CN1C(=O)C2CCCC2=Nc2ccccc21 (centres undefined)	> 40 µM (inactive)
Cn1cc(-c2nc(C(=O)Nc3ccc(C#N)cc3)cs2)c2cccnc21	> 40 µM (inactive)
CC(=O)CSc1nc2sc3c(c2c(=O)n1-c1ccccc1)CCCC3	> 40 µM (inactive)
O=C(Nc1nc(-c2ccccc2)ns1)c1ccc2ncsc2c1	> 40 µM (inactive)
COc1ccc(C(NC(=O)c2nc3n(n2)-c2ccccc2S(=O)(=O)N3)C(C)C)cc1 (centres undefined)	> 40 µM (inactive)
O=C(Nc1ccccc1C(=O)NC1CCSC1)c1ccc([N+](=O)[O-])cc1 (centres undefined)	> 40 µM (inactive)
Cc1cccc(NC(=O)Nc2nnc(CC(=O)NCc3ccccc3)s2)c1	> 40 µM (inactive)
COc1cccc2c1NC(=O)C21CCN(C(=O)Nc2cccc3ccccc23)CC1	> 40 µM (inactive)
COc1ccc(NS(=O)(=O)c2cc(NC(=O)CC(=O)c3ccc([N+](=O)[O-])cc3)ccc2Cl)cc1	> 40 µM (inactive)
CCOc1ccc(NC(=O)Cn2cc(C(=O)c3ccc(Cl)cc3)c(=O)c3cc(OC)ccc32)cc1	> 40 µM (inactive)
O=C(O)CCCCCN1C(=O)CC(c2ccc(Cl)cc2)CC1=O	31.8 µM
CCc1cccc(CC)c1NC(=O)COC(=O)c1cc2cccc(OC)c2oc1=O	> 40 µM (inactive)
CCc1ccc(NC(=O)Cc2nnc3cc(-c4nc(C)no4)ccn23)cc1	19.6 µM
CCn1cc2c(n1)c(=O)n(Cc1ccccc1)c(=O)n2CC(=O)Nc1ccc(C(C)C)cc1	> 40 µM (inactive)
CC1OC2CC(O)C1(O)C1=C2C(O)=C(C(N)=O)C(=N)C1=O (centres undefined)	1.56 µM
O=C(CCCn1c(=O)c2cc(Cl)ccc2n(CC(=O)Nc2cccc(F)c2)c1=O)NCc1ccco1	> 40 µM (inactive)
Cc1nc(N2CCN(c3ccc(Cl)cc3)CC2)c2oc3ccccc3c2n1	> 40 µM (inactive)
Cc1nc2c(c(C)c1CCC(=O)Nc1ccccc1F)c(=O)n(C)c(=O)n2C	> 40 µM (inactive)
O=C1CC(c2cc3c(cc2Br)OCO3)c2cc3c(cc2N1)OCCO3 (centres undefined)	> 40 µM (inactive)

Further lines, results first:

IC50	SMILES
> 40 µM (inactive)	CCc1ccc(CN(C)C(=O)c2ccc(NS(=O)(=O)c3ccc(F)c(F)c3)cc2)cc1
> 40 µM (inactive)	CCCn1c(=O)c2sccc2n2c(CCC(=O)N3CCc4ccccc4C3)nnc12
> 40 µM (inactive)	COc1cccc(-c2cncc(C3CCN(S(=O)(=O)N(C)C)CC3)n2)c1
> 40 µM (inactive)	CNc1nc2c(c(=O)n1C)CN(C(=O)Nc1cccc3ccccc13)CC2
> 40 µM (inactive)	COc1cc(Cl)c(C)cc1NC(=O)Cn1c(=O)n(CC(=O)NCc2ccco2)c(=O)c2ccccc21
> 40 µM (inactive)	COc1ccc(-c2cc(C(=O)Nc3ccnn3Cc3ccccc3)no2)cc1
> 40 µM (inactive)	CC(C)(C)c1ccc(C2CC(=O)C3=C(C2)Nc2ccccc2N(C(=O)CCC(=O)O)C3c2cccc([N+](=O)[O-])c2)cc1 (centres undefined)
> 40 µM (inactive)	CCc1cccc(C)c1NC(=O)Cn1c(C(C)NC(=O)c2ccc(C)cc2)nc2ccccc21 (centres undefined)
25.6 µM	O=c1c(S(=O)(=O)c2cc(F)cc(F)c2)c[nH]c2cc(Cl)ccc12
> 40 µM (inactive)	N#Cc1ccc(NC(=O)Nc2cccn(Cc3ccccc3Br)c2=O)cc1
> 40 µM (inactive)	O=C(COc1ccc(N2CC(C(=O)NCc3ccc4c(c3)OCO4)CC2=O)cc1)Nc1ccc(Cl)cc1 (centres undefined)
> 40 µM (inactive)	COc1cccc(CNC(=O)c2nnn(CC(=O)Nc3cc(C)ccc3C)c2N)c1
> 40 µM (inactive)	Cc1ccc(NC(=O)c2ccc3nn(CC(=O)Nc4ccc(C)cc4C)c(=O)n3c2)cc1
> 40 µM (inactive)	COC(=O)c1ccc(Cn2nnc3c(=O)[nH]c(C4CCCN(S(=O)(=O)c5ccc(C)cc5)C4)nc32)cc1 (centres undefined)
> 40 µM (inactive)	Cn1c(COc2cccc3cccnc23)nnc1SCC(=O)c1ccc(Cl)cc1Cl
> 40 µM (inactive)	O=C(Cn1c(=O)c2cccn2c2ccccc21)NCc1ccc(F)cc1
37.3 µM	Cc1[nH]nc(NC(=O)C2COc3ccccc3O2)c1-c1ccccc1 (centres undefined)
> 40 µM (inactive)	COc1ccc(N2CC(c3nnc(NC(=O)CCc4ccccc4)s3)CC2=O)cc1 (centres undefined)
> 40 µM (inactive)	C/C(=C\Cc1c(O)cc(C)c(C=O)c1O)CC[C@@]1(C)[C@H](C)CCC(=O)[C@@H]1C
> 40 µM (inactive)	CCC(=O)N1c2ccccc2NC2=C(C(=O)CC(c3ccccc3OCc3ccccc3)C2)C1c1ccccc1 (centres undefined)
